For 13 compounds, melting point results are on record in patent US8119636B2, “Pyrrolopyrazine kinase inhibitors” (Roche Palo Alto LLC, priority 2008, dated 2012).

With `CC(C)CC(=O)c1c[nH]c2ncc(Br)nc12` [Compound I-1, 1-(2-Bromo-5H-pyrrolo[2,3-b]pyrazin-7-yl)-3-methyl-butan-1-one], the melting point is 183 to 187.5 °C.

As for `CC(C)NC(=O)c1c[nH]c2ncc(Cl)nc12` [Compound I-3, 2-Chloro-5H-pyrrolo[2,3-b]pyrazine-7-carboxylic acid isopropylamide], the melting point was in the range of 278 to 279 °C.

`CC(C)(C)C(=O)c1c[nH]c2ncc(Cl)nc12` [Compound I-6, 1-(2-Chloro-5H-pyrrolo[2,3-b]pyrazin-7-yl)-2,2-dimethyl-propan-1-one] had a melting point of 209 to 210 °C.

Turning to `CC1(C(=O)c2c[nH]c3ncc(Br)nc23)CCCCC1` [Compound I-7, (2-Bromo-5H-pyrrolo[2,3-b]pyrazin-7-yl)-(1-methyl-cyclohexyl)-methanone], the melting point fell in the range of 198 to 199 °C.

Consider `CC(C)(C)C(=O)c1c[nH]c2ncc(Br)nc12` [Compound I-8, 1-(2-Bromo-5H-pyrrolo[2,3-b]pyrazin-7-yl)-2,2-dimethyl-propan-1-one], for which the melting point lay in the range of 213 to 214 °C.

`C#Cc1cnc2[nH]cc(C(=O)C(C)(C)C)c2n1` [Compound I-11, 1-(2-Ethynyl-5H-pyrrolo[2,3-b]pyrazin-7-yl)-2,2-dimethyl-propan-1-one]: the melting point lay in the range of 229 to 231 °C.

The compound `CCc1cnc2[nH]cc(C(=O)C(C)(C)C)c2n1` [Compound I-12, 1-(2-Ethyl-5H-pyrrolo[2,3-b]pyrazin-7-yl)-2,2-dimethyl-propan-1-one] yielded a melting point of 215 to 216 °C.

`CC(C)C(O)c1cnc2[nH]cc(C(=O)C(C)(C)C)c2n1` (stereo not shown) [Compound I-15, 1-[2-(1-Hydroxy-2-methyl-propyl)-5H-pyrrolo[2,3-b]pyrazin-7-yl]-2,2-dimethyl-propan-1-one] registered a melting point of 148 to 150 °C.

As to `Cc1ccccc1C(O)c1cnc2[nH]cc(C(=O)C(C)(C)C)c2n1` (stereo not shown) [Compound I-16, 1-[2-(Hydroxy-o-tolyl-methyl)-5H-pyrrolo[2,3-b]pyrazin-7-yl]-2,2-dimethyl-propan-1-one], the melting point is 181 to 183 °C.

In turn, `CC(C)(C)C(=O)c1c[nH]c2ncc(C(O)c3ccccc3)nc12` (stereo not shown) [Compound I-17, 1-[2-(Hydroxy-phenyl-methyl)-5H-pyrrolo[2,3-b]pyrazin-7-yl]-2,2-dimethyl-propan-1-one] had a melting point of 168 to 170 °C.

As for `CC(C)(C)C(=O)c1c[nH]c2ncc(C(O)c3ccncc3)nc12` (stereo not shown) [Compound I-18, 1-[2-(Hydroxy-pyridin-4-yl-methyl)-5H-pyrrolo[2,3-b]pyrazin-7-yl]-2,2-dimethyl-propan-1-one], the melting point was in the range of 189.1 to 194.9 °C.

In turn, `CC(C)(C)C(=O)c1c[nH]c2ncc(C(O)c3cccnc3)nc12` (stereo not shown) [Compound I-19, 1-[2-(Hydroxy-pyridin-3-yl-methyl)-5H-pyrrolo[2,3-b]pyrazin-7-yl]-2,2-dimethyl-propan-1-one] registered a melting point of 192 to 194 °C.

Turning to `CC1(C(=O)c2c[nH]c3ncc(Br)nc23)CCCCCC1` [Compound I-24, (2-Bromo-5H-pyrrolo[2,3-b]pyrazin-7-yl)-(1-methyl-cycloheptyl)-methanone], the melting point is 197.7 to 198.2 °C.
